Data: publication PMC11521309, “A novel 4-aminoquinoline chemotype with multistage antimalarial activity and lack of cross-resistance with PfCRT and PfMDR1 mutants” (PLOS Pathogens, 2024)

Legend:
[1] = tested on: HepG2 cells; assay: MTT cytotoxicity assay, 72 h; format: cell-based, Human
Protocol: (§1) Human hepatoma (HepG2) and fibroblast-like monkey kidney cells (COS-7) were cultured in Dulbecco’s Modified Eagle Medium supplemented with 10% heat-inactivated fetal bovine serum and gentamycin (40 mg/L) at 37°C in a 5% CO2 atmosphere. Cytotoxicity of test compounds was measured by metabolic reduction of mitochondrial enzymes using the MTT assay (3-[4,5-dimethyl-thiazol-2-yl]-2,5-diphenyltetrazolium chloride). Cells were seeded at 10^5 cells/well in 96-well plates and incubated for 72 hours in the presence of a 2-fold 12-point serial dilution of drugs along with drug-free controls. After adding 15 μL of MTT (5 mg/mL) to the wells, plates were centrifuged at 317g for 5 minutes and the pellet was resuspended in isopropanol. Absorbance was measured at 570 nm (CLARIOStar, Labtech BMG). Cell viability was determined by formazan production, and was expressed as a percentage of untreated control wells.

[2] = MTT cytotoxicity assay, 72 h; format: cell-based, Human; conditions: human, HepG2 cells; MTT, 72 h, N = 3
Protocol: as §1

[3] = tested on: COS-7 cells; assay: MTT cytotoxicity assay, 72 h; format: cell-based, monkey
Protocol: as §1

[4] = MTT cytotoxicity assay, 72 h; format: cell-based, monkey; conditions: monkey, COS-7 cells; MTT, 72 h, N = 3
Protocol: as §1

[5] = tested on: P. falciparum Dd2 ABS parasites; assay: ABS parasite survival assay, 72 h, flow cytometry; format: cell-based; conditions: Plasmodium falciparum, DD2, ABS parasites, N = 3; read-out: IC50 Dd2
Protocol: (§2) P. falciparum ABS parasites were cultured at 3% hematocrit in human O^+ RBCs in RPMI-1640 media supplemented with 25 mM HEPES, 50 mg/L hypoxanthine, 2 mM L-glutamine, 0.21% sodium bicarbonate, 0.5% (w/v) AlbuMAXII (Invitrogen) and 10 μg/mL gentamycin. Culture flasks were kept in modular incubator chambers (Billups-Rothenberg) in a 5% O2, 5% CO2, and 90% N2 atmosphere at 37°C. Synchronized ring-stage parasites were obtained by two consecutive rounds of treatment with 5% D-sorbitol in 48-hour intervals. […] This was done by exposing cultures at 1% hematocrit and 0.3% parasitemia in 96-well plates in the presence of drugs in a two-fold 10 or 12-point serial dilution in duplicate along with drug-free controls. After a 72-hour incubation, parasite survival was assessed by flow cytometry on an iQue flow cytometer (Sartorius) using SYBR Green and MitoTracker Deep Red FM (Life Technologies) as nuclear stain and vital dye, respectively. Parasite survival was determined as a percentage relative to drug-free control. IC50 values were interpolated from log concentration versus response curves in Prism 9 (GraphPad Prism Software Inc.).

[6] = tested on: P. falciparum 3D7 ABS parasites; assay: ABS parasite survival assay, 72 h, flow cytometry; format: cell-based; conditions: Plasmodium falciparum, 3D7, ABS parasites, N = 3; read-out: IC50 3D7
Protocol: as §2

[7] = tested on: P. berghei PbGFP-Luccon liver stage; assay: In vitro inhibition of liver stage infection of Huh-7 cells, bioluminescence; format: cell-based, Plasmodium berghei; conditions: DMSO = 100
Protocol: (§3) In vitro inhibition of Plasmodium liver stage infection was assessed using bioluminescence data from Huh-7 cells infected with a firefly-luciferase-expressing P. berghei line, PbGFP-Luccon, in the presence of various compound concentrations. […] One day before drug treatment and infection, 10^4 Huh-7 cells/well were seeded in 96-well plates. The medium was then replaced by an infection medium (culture medium supplemented with 50 μg/mL gentamycin and 0.8 μg/mL amphotericin B) containing desired concentrations of test compounds. Fresh sporozoites recovered from salivary glands of infected female Anopheles stephensi mosquitoes were added to seeded Huh-7 cells at a 1:1 proportion, followed by centrifugation at 1700g for 5 minutes and incubation for 46 hours at 37°C under 5% CO2. Compound toxicity against Huh-7 cells was assessed by measuring […] using the Alamar Blue assay (Invitrogen). IC50 values were calculated using nonlinear regression analysis (GraphPad Prism version 9).

[8] = tested on: Huh-7 cells; assay: Host cell confluency, Alamar Blue; format: cell-based, human; conditions: DMSO = 100
Protocol: as §3

[9] = tested on: P. falciparum NF54-Pfs16-GFP-Luc stage IV-V gametocytes; assay: Mature gametocyte (stages IV-V) viability, luciferase, 48 h; format: cell-based, Plasmodium falciparum; conditions: 5 μM
Protocol: P. falciparum NF54-Pfs16-GFP-Luc (MRA-1217), a highly gametocyte-producing strain, was cultured following standard procedures. NF54-Luc ABS parasites were sorbitol-synchronized as previously described and cultured to reach 8–10% parasitemia as mature trophozoites prior to starting gametogenesis induction via nutrient deficit stress. Briefly, stress was induced by replacing only 40% of the culture medium and returning cultures to a 37°C incubation. Cultures were treated with 50 mM N-acetylglucosamine for 10 days to remove ABS parasites. Mature gametocytes (stages IV-V) were isolated using magnetic columns and incubated at 2% gametocytemia and 1.5% hematocrit in 96-well plates containing the test compounds for 48 hours at 37°C, following standard P. falciparum culturing conditions. Methylene blue was used as a gametocytocidal control alongside drug-free wells. Luciferase activity was assessed by adding 40 μL of luciferin substrate (Promega) to 40 μL of parasite lysates and detecting bioluminescence at an integration constant of 10s with the BioTek Cytation 5 Cell Imaging Multimode Reader.

| Compound | SI (CC50 HepG2 / IC50 3D7) [1] | CC50 at 72 h [2] | SI (CC50 COS-7 / IC50 3D7) [3] | CC50 at 72 h [4] | IC50 [5] | IC50 [6] | Infection, Mean ([7]; 1 uM) | Infection, Mean ([7]; 10 uM) | Confluency, Mean ([8]; 1 uM) | Confluency, Mean ([8]; 10 uM) | % Inhibition of viability, mature gametocytes ([9]; mean, N = 3) | % Inhibition of viability, mature gametocytes ([9]; mean, N = 3, listed as MB) | % Inhibition of viability, mature gametocytes ([9]; single replicates) |
| --- | --- | --- | --- | --- | --- | --- | --- | --- | --- | --- | --- | --- | --- |
| COc1ccc2c(Nc3ccccc3)ccnc2c1 [LDT-622] | 13.7 | 3 ± 0.9 µM | 17.5 | 3.8 ± 0.7 µM | 0.4 ± 0.06 µM | 0.2 ± 0.02 µM |  |  |  |  |  |  |  |
| COc1cc(Nc2ccnc3cc(Br)ccc23)cc(OC)c1OC [LDT-624] | 20.6 | 32.5 ± 7.5 µM | 26.1 | 41.3 ± 17.2 µM | 1 ± 0.2 µM | 1.6 ± 0.7 µM |  |  |  |  |  |  |  |
| COc1ccc(Nc2ccnc3ccc(F)cc23)cc1OC [LDT-625] | 10.3 | 33.3 ± 3.8 µM | 6.2 | 20.4 ± 1.3 µM | 2.9 ± 0.5 µM | 3.2 ± 0.8 µM |  |  |  |  |  |  |  |
| COc1ccc(Nc2ccnc3c(F)cc(F)cc23)cc1OC [LDT-626] | 9.8 | 53.8 ± 10.8 µM | 9.3 | 50.9 ± 22.2 µM | 3.2 ± 0.4 µM | 5.5 ± 0.5 µM |  |  |  |  |  |  |  |
| COc1ccc(Nc2ccnc3ccccc23)cc1 [LDT-627] | 5.2 | 12.7 ± 6.4 µM | 22.1 | 54.5 ± 16.7 µM | 2 ± 0.2 µM | 2.5 ± 0.8 µM |  |  |  |  |  |  |  |
| COc1cc(NC(C)CCCN)c2ncccc2c1 (stereo not shown) [Primaquine] |  |  |  |  |  |  | 136.53 | 51.51 | 110.92 | 113.36 |  |  |  |
| CN(C)c1ccc2nc3ccc(=[N+](C)C)cc-3sc2c1 [methylene blue] |  |  |  |  |  |  |  |  |  |  | 100% | 100.00% | 100.00% |
